From ChEMBL document CHEMBL3286148, “Aminoazabenzimidazoles, a novel class of orally active antimalarial agents” (J Med Chem, 2014)
Values after ≈ are worked out from the molar mass of the structure shown.

Tested on: Plasmodium falciparum
Assay: microbe, parasite or virus in culture
Conditions: W2, 72 h
Description: Antiplasmodial activity against Plasmodium falciparum W2 after 72 hrs by SYBR I method
Work on `C[C@@H]1CC[C@H]2[C@@H](C)C(=O)O[C@@H]3O[C@@]4(C)CC[C@@H]1[C@]32OO4` [ARTEMISININ] yielded an IC50 of 6.52 nM.
`Nc1nc2ccccc2n1CC(O)c1ccc(Cl)cc1Cl` (racemic) showed an IC50 of 11.6 nM.
For `CCc1nc(N)nc(N)c1-c1ccc(Cl)cc1` [PYRIMETHAMINE], the IC50 was 15400 nM.
`CN1CCN(c2ccc3nc(N)n(CC(O)c4ccc(C(F)(F)F)cc4Cl)c3n2)CC1` (racemic) showed an IC50 of 156 nM.

Tested on: Plasmodium falciparum
Assay: microbe, parasite or virus in culture
Conditions: K1, 72 h
For `C[C@@H]1CC[C@H]2[C@@H](C)C(=O)O[C@@H]3O[C@@]4(C)CC[C@@H]1[C@]32OO4` [ARTEMISININ], the IC50 was 6.47 nM.
With `Nc1nc2ccccc2n1CC(O)c1ccc(Cl)cc1Cl` (racemic) the IC50 was 7 nM.
Work on `CCc1nc(N)nc(N)c1-c1ccc(Cl)cc1` [PYRIMETHAMINE] yielded an IC50 of 8560 nM.
In the case of `CN1CCN(c2ccc3nc(N)n(CC(O)c4ccc(C(F)(F)F)cc4Cl)c3n2)CC1` (racemic), the IC50 is reported as 85 nM.

Tested on: Plasmodium falciparum
Assay: microbe, parasite or virus in culture
Conditions: Dd2, 72 h
Description: Antiplasmodial activity against Plasmodium falciparum Dd2 after 72 hrs by SYBR I method
Molecule `C[C@@H]1CC[C@H]2[C@@H](C)C(=O)O[C@@H]3O[C@@]4(C)CC[C@@H]1[C@]32OO4` [ARTEMISININ] has an IC50 of 10.3 nM.
In the case of `Nc1nc2ccccc2n1CC(O)c1ccc(Cl)cc1Cl` (racemic), the IC50 is reported as 30 nM.
`CCc1nc(N)nc(N)c1-c1ccc(Cl)cc1` [PYRIMETHAMINE] gave an IC50 of 13800 nM.
For `CN1CCN(c2ccc3nc(N)n(CC(O)c4ccc(C(F)(F)F)cc4Cl)c3n2)CC1` (racemic), the IC50 was 370 nM.

Tested on: not listed separately
Assay: Fraction unbound in human plasma
Format: ADME, cell-free
Conditions: not given
`CN1CCN(c2ccc3nc(N)n(CC(O)c4ccc(C(F)(F)F)cc4Cl)c3n2)CC1` (racemic) gave a fraction unbound of 0.234.

Tested on: Plasmodium falciparum
Assay: Antiplasmodial activity against Plasmodium falciparum Dd2 harboring HSP90 mutant
Format: functional, organism-based
Conditions: not given
For `C[C@@H]1CC[C@H]2[C@@H](C)C(=O)O[C@@H]3O[C@@]4(C)CC[C@@H]1[C@]32OO4` [ARTEMISININ], the IC50 was 1.29 nM.

Target: Cytochrome P450 2C9 (Homo sapiens, UniProt P11712)
Sequence (P11712 whole entry): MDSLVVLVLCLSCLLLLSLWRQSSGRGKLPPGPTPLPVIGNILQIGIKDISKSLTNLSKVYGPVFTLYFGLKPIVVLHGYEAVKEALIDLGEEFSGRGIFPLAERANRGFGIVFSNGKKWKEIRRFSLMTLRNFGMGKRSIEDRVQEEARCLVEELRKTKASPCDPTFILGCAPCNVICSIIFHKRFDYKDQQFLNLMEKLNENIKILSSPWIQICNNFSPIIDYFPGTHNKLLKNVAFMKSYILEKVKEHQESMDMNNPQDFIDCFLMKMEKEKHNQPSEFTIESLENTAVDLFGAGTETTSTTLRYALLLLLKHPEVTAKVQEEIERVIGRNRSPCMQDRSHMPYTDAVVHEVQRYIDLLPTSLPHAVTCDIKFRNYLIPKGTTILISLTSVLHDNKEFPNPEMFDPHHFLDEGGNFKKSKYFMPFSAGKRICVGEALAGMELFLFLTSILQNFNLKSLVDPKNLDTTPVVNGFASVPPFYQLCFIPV
Assay: Inhibition of CYP2C9 (unknown origin)
Format: ADME
Conditions: not given
Work on `CN1CCN(c2ccc3nc(N)n(CC(O)c4ccc(C(F)(F)F)cc4Cl)c3n2)CC1` (racemic) yielded an IC50 greater than 30000 nM.

Target: T1, Cytochrome P450 1A2 (Homo sapiens, UniProt P05177)
T1 sequence (P05177 whole entry): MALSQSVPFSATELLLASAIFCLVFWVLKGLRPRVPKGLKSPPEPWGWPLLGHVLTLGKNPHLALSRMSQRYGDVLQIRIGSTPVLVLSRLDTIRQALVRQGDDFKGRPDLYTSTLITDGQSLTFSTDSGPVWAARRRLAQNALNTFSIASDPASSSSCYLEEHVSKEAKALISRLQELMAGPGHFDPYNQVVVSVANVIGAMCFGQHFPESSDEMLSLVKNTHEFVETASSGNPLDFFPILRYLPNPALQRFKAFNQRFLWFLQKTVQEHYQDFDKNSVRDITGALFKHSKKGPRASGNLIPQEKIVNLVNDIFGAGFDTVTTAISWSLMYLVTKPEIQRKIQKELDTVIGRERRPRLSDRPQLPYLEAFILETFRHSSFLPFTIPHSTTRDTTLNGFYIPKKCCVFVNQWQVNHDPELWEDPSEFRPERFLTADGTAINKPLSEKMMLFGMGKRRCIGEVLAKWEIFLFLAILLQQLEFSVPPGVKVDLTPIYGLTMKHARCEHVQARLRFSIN
Assay: Inhibition of CYP1A2 (unknown origin)
Format: ADME
Conditions: not given
`CN1CCN(c2ccc3nc(N)n(CC(O)c4ccc(C(F)(F)F)cc4Cl)c3n2)CC1` (racemic) gave an IC50 greater than 30000 nM.

Tested on: not listed separately
Assay: Clearance in human liver microsomes
Format: ADME
Conditions: read-out: CLH
Molecule `Nc1nc2ccccc2n1CC(O)c1ccc(Cl)cc1Cl` (racemic) has a microsomal CLint of 25 µL/min/mg.
Work on `CN1CCN(c2ccc3nc(N)n(CC(O)c4ccc(C(F)(F)F)cc4Cl)c3n2)CC1` (racemic) yielded a microsomal CLint of 21 µL/min/mg.

Target: Cytochrome P450 2C19 (Homo sapiens, UniProt P33261)
Sequence (P33261 whole entry): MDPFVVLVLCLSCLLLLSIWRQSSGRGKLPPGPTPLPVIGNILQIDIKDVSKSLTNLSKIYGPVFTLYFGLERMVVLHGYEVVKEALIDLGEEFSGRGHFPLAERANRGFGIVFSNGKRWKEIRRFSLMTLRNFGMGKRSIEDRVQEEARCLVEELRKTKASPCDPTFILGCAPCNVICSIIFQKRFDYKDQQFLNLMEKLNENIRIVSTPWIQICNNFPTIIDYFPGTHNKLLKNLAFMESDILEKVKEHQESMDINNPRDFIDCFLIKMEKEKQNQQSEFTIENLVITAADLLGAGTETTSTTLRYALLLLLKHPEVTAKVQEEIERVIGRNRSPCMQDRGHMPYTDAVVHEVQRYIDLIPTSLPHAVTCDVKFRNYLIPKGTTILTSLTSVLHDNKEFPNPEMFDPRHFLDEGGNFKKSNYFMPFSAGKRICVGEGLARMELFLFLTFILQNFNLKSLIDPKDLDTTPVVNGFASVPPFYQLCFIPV
Assay: Inhibition of CYP2C19 (unknown origin)
Format: ADME
Conditions: not given
In the case of `CN1CCN(c2ccc3nc(N)n(CC(O)c4ccc(C(F)(F)F)cc4Cl)c3n2)CC1` (racemic), the IC50 is reported as 5000 nM.

Tested on: not listed separately
Assay: Clearance in rat hepatocytes assessed per 1E6 cells
Format: ADME, cell-based, Hepatocyte
Conditions: read-out: CLH
For `Nc1nc2ccccc2n1CC(O)c1ccc(Cl)cc1Cl` (racemic), the hepatocyte CLint was 155 µL/min/1e6 cells.
Molecule `CN1CCN(c2ccc3nc(N)n(CC(O)c4ccc(C(F)(F)F)cc4Cl)c3n2)CC1` (racemic) has a hepatocyte CLint of 106 µL/min/1e6 cells.

Tested on: Plasmodium falciparum
Assay: microbe, parasite or virus in culture
Conditions: NF54, 72 h
In the case of `C[C@@H]1CC[C@H]2[C@@H](C)C(=O)O[C@@H]3O[C@@]4(C)CC[C@@H]1[C@]32OO4` [ARTEMISININ], the IC50 is reported as 7.05 nM.
`Nc1nc2ccccc2n1CC(O)c1ccc(Cl)cc1Cl` (racemic) gave an IC50 of 18 nM.
In the case of `CCc1nc(N)nc(N)c1-c1ccc(Cl)cc1` [PYRIMETHAMINE], the IC50 is reported as 28.3 nM.
With `CN1CCN(c2ccc3nc(N)n(CC(O)c4ccc(C(F)(F)F)cc4Cl)c3n2)CC1` (racemic) the IC50 was 89 nM.

Tested on: Plasmodium falciparum
Assay: Antiplasmodial activity against Plasmodium falciparum Dd2 harboring CYTb-Qi mutant
Format: functional, organism-based
Conditions: not given
`C[C@@H]1CC[C@H]2[C@@H](C)C(=O)O[C@@H]3O[C@@]4(C)CC[C@@H]1[C@]32OO4` [ARTEMISININ] showed an IC50 of 1.26 nM.

Tested on: not listed separately
Assay: Aqueous solubility of the compound
Format: physicochemical
Conditions: buffer
For `CN1CCN(c2ccc3nc(N)n(CC(O)c4ccc(C(F)(F)F)cc4Cl)c3n2)CC1` (racemic), the solubility was 118 µM (≈ 53.7 µg/mL).

Target: Cytochrome P450 3A4 (Homo sapiens, UniProt P08684)
Sequence (P08684 whole entry): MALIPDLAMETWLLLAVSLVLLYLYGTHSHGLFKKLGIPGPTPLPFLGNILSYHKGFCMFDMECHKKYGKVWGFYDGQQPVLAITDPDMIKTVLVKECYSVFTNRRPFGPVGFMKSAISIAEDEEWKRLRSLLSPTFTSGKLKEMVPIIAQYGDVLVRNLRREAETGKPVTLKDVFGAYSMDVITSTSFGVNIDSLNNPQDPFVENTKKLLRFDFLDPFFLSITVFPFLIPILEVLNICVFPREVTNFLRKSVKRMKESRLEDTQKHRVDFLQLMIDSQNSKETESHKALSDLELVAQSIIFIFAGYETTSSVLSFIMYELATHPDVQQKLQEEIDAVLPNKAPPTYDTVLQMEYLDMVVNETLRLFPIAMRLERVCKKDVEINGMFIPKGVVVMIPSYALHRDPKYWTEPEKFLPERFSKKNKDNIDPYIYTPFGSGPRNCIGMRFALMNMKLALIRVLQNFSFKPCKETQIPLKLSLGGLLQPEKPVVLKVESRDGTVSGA
Assay: Inhibition of CYP3A4 (unknown origin)
Format: ADME
Conditions: not given
`CN1CCN(c2ccc3nc(N)n(CC(O)c4ccc(C(F)(F)F)cc4Cl)c3n2)CC1` (racemic) gave an IC50 of 14100 nM.

Tested on: not listed separately
Assay: Lipophilicity, log D of the compound
Format: physicochemical
Conditions: octanol/water
With `CN1CCN(c2ccc3nc(N)n(CC(O)c4ccc(C(F)(F)F)cc4Cl)c3n2)CC1` (racemic) the logD was 2.8.

Tested on: Plasmodium falciparum
Assay: Antiplasmodial activity against Plasmodium falciparum Dd2
Format: functional, organism-based
Conditions: not given
With `C[C@@H]1CC[C@H]2[C@@H](C)C(=O)O[C@@H]3O[C@@]4(C)CC[C@@H]1[C@]32OO4` [ARTEMISININ] the IC50 was 1.51 nM.

Tested on: not listed separately
Assay: Selectivity index, ratio of IC50 for human A549 cells to IC50 for Plasmodium falciparum
Format: toxicity, cell-based
Conditions: read-out: Ratio IC50
Work on `CN1CCN(c2ccc3nc(N)n(CC(O)c4ccc(C(F)(F)F)cc4Cl)c3n2)CC1` (racemic) yielded a selectivity ratio of 348.

Tested on: Plasmodium falciparum
Assay: microbe, parasite or virus in culture
Conditions: 7G8, 72 h
Description: Antiplasmodial activity against Plasmodium falciparum 7G8 after 72 hrs by SYBR I method
For `C[C@@H]1CC[C@H]2[C@@H](C)C(=O)O[C@@H]3O[C@@]4(C)CC[C@@H]1[C@]32OO4` [ARTEMISININ], the IC50 was 1.3 nM.
`Nc1nc2ccccc2n1CC(O)c1ccc(Cl)cc1Cl` (racemic) gave an IC50 of 4.09 nM.
For `CCc1nc(N)nc(N)c1-c1ccc(Cl)cc1` [PYRIMETHAMINE], the IC50 was 10000 nM.
With `CN1CCN(c2ccc3nc(N)n(CC(O)c4ccc(C(F)(F)F)cc4Cl)c3n2)CC1` (racemic) the IC50 was 37.9 nM.

Target: Cytochrome P450 2D6 (Homo sapiens, UniProt P10635)
Sequence (P10635 whole entry): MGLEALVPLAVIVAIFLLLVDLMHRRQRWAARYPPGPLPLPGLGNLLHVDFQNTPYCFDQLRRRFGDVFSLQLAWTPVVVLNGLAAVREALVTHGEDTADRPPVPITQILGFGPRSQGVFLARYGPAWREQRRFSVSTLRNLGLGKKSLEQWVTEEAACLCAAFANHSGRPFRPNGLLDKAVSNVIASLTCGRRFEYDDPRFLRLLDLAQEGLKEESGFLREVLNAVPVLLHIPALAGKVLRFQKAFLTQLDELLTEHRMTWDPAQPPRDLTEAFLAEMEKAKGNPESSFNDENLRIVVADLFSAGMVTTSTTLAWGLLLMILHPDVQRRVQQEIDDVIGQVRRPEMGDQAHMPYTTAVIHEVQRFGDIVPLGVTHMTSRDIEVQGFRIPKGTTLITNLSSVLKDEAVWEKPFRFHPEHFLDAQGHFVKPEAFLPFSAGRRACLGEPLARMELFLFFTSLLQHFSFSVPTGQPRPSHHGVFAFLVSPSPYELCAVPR
Assay: Inhibition of CYP2D6 (unknown origin)
Format: ADME
Conditions: not given
For `CN1CCN(c2ccc3nc(N)n(CC(O)c4ccc(C(F)(F)F)cc4Cl)c3n2)CC1` (racemic), the IC50 was 27900 nM.

Tested on: Plasmodium falciparum
Assay: Antiplasmodial activity against Plasmodium falciparum Dd2 harboring DHODH mutant
Format: functional, organism-based
Conditions: not given
Work on `C[C@@H]1CC[C@H]2[C@@H](C)C(=O)O[C@@H]3O[C@@]4(C)CC[C@@H]1[C@]32OO4` [ARTEMISININ] yielded an IC50 of 1.81 nM.

Tested on: Plasmodium falciparum
Assay: microbe, parasite or virus in culture
Conditions: SB1, 72 h
Description: Antiplasmodial activity against Plasmodium falciparum SB1 after 72 hrs by SYBR I method
With `C[C@@H]1CC[C@H]2[C@@H](C)C(=O)O[C@@H]3O[C@@]4(C)CC[C@@H]1[C@]32OO4` [ARTEMISININ] the IC50 was 16.6 nM.
For `Nc1nc2ccccc2n1CC(O)c1ccc(Cl)cc1Cl` (racemic), the IC50 was 42.5 nM.
`CCc1nc(N)nc(N)c1-c1ccc(Cl)cc1` [PYRIMETHAMINE] showed an IC50 of 10.8 nM.
In the case of `CN1CCN(c2ccc3nc(N)n(CC(O)c4ccc(C(F)(F)F)cc4Cl)c3n2)CC1` (racemic), the IC50 is reported as 220 nM.

Target: Voltage-gated inwardly rectifying potassium channel KCNH2 (Homo sapiens, UniProt Q12809)
Sequence (Q12809 whole entry): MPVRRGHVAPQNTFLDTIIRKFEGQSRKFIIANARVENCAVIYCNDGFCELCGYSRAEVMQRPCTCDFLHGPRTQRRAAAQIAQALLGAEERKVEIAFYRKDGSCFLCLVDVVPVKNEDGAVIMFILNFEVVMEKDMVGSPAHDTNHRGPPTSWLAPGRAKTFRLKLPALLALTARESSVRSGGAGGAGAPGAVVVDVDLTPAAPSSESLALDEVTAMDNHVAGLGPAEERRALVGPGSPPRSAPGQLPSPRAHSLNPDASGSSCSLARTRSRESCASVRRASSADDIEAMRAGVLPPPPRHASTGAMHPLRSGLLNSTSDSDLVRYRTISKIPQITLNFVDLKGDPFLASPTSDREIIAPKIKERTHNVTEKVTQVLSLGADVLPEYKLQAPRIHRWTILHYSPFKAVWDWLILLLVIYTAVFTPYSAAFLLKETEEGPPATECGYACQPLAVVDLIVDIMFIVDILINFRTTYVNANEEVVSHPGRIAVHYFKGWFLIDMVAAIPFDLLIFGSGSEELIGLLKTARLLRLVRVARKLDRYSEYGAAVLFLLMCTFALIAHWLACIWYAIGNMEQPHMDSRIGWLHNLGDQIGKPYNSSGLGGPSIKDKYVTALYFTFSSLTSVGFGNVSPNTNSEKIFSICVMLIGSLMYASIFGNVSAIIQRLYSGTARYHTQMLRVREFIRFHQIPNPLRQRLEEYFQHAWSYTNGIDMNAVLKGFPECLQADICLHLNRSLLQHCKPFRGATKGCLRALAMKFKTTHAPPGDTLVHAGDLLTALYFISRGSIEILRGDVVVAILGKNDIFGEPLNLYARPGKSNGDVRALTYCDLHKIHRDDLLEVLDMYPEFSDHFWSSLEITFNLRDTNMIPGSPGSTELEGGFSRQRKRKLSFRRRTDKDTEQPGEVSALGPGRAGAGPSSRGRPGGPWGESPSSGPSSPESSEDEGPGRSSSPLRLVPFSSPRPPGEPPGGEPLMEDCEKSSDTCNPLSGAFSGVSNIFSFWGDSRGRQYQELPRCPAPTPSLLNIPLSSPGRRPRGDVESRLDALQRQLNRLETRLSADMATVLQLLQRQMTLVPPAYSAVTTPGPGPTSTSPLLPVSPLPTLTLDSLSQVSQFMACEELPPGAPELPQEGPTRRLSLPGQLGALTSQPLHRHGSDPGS
Assay: Inhibition of human ERG
Conditions: not given
`CN1CCN(c2ccc3nc(N)n(CC(O)c4ccc(C(F)(F)F)cc4Cl)c3n2)CC1` (racemic) showed an IC50 of 12200 nM.

Tested on: not listed separately
Assay: Clearance in mouse liver microsomes
Format: ADME
Conditions: read-out: CLH
For `Nc1nc2ccccc2n1CC(O)c1ccc(Cl)cc1Cl` (racemic), the microsomal CLint was 213 µL/min/mg.
`CN1CCN(c2ccc3nc(N)n(CC(O)c4ccc(C(F)(F)F)cc4Cl)c3n2)CC1` (racemic) gave a microsomal CLint of 102 µL/min/mg.

Tested on: Plasmodium falciparum
Assay: Antiplasmodial activity against Plasmodium falciparum Dd2 harboring CRT mutant
Format: functional, organism-based
Conditions: not given
For `C[C@@H]1CC[C@H]2[C@@H](C)C(=O)O[C@@H]3O[C@@]4(C)CC[C@@H]1[C@]32OO4` [ARTEMISININ], the IC50 was 1.84 nM.
